Values quoted from earlier work in patent publication US20220054404A1, “SUBCUTANEOUS ADMINISTRATION OF NANOPARTICLES COMPRISING AN MTOR INHIBITOR AND ALBUMIN FOR TREATMENT OF DISEASES” (Abraxis BioScience, LLC, priority 2019, published 2022).

System: ABCB1/ABCG2

COc1ccc(COc2cc3oc(=O)c4cc(C(C)O)ccc4c3cc2OC)cc1 (stereo not shown) [Palomid 529]
Affinity for ABCB1/ABCG2: lacks affinity for ABCB1/ABCG2
